Experimental findings from PMC6832513, “Antimalarial Properties of Dunnione Derivatives as NQO2 Substrates” (Molecules, 2019) are described below.

Data set [1] can be described thus: Cytotoxic evaluation on the Hela cell line (MTT assay). It is filed as cell-based. The settings on record: human, Hela cells. Here is the method: The evaluation of the tested molecules’ cytotoxicity on the Hela cell line was conducted according to the method of Mosman with slight modifications. Briefly, cells (1 × 10^5 cells/mL) in 100 µL of complete medium, (MEM supplemented with 10% fetal bovine serum, 2 mM L-glutamine and antibiotics (100 U/mL penicillin and 100 µg/mL streptomycin) were seeded into each well of the 96-well plates and incubated at 37 °C and 5% CO2. After a 24 h incubation, 100 µL of medium with various product concentrations and appropriate controls were added and the plates were incubated for 72 h at 37 °C and 5% CO2. Each plate-well was then microscope-examined to detect possible precipitate formation before the medium was aspirated from the wells. MTT solution (100 µL, 0.5 mg/mL in RPMI) was then added to each well. Cells were incubated for 2 h at 37 °C and 5% CO2. After this time, the MTT solution was removed and DMSO (100 µL) was added to dissolve the resulting formazan crystals. Plates were shaken vigorously (300 rpm) for 5 min. The absorbance was measured at 570 nm with a microplate spectrophotometer (Eon BioTek). DMSO was used as blank and doxorubicin (purchased from Sigma Aldrich) as positive control. CC50 were calculated by non-linear regression analysis processed on dose response curves, using TableCurve 2D V5 software (San Jose, CA, USA). CC50 values represent the mean value calculated from three independent experiments.

A short description of data set [2]: Acute toxicity in healthy Swiss mice. It is filed as in vivo. The settings on record: for weight variation compared to the vehicle control group: healthy Swiss mice, 50 mg/kg intraperitoneal, Days 7, 14 and 20; for mortality or major behavioral changes: mouse, in vivo, ip, 50 mg/kg. As for the experimental part:
Compounds 1 and 3 were diluted in 50% DMSO and tested at 50 mg/kg. Protocols used for acute oral toxicity measurement were previously described. Briefly, mice were randomly divided into three groups of three mice and treated once a day from D0 to D3 by the intraperitoneal route with 200 µL of Compound 1 or Compound 3 at 50 mg/kg, or DMSO 50%.

Compound `COc1ccc2c(c1)C(=O)C(=O)C1=C2OC(C)C1(C)C` (stereo not drawn) [Compound 3] came in with a CC50 at 72 h in data set [1] of 1430 ± 314 nM. In data set [2], the “weight variation compared to the vehicle control group” value is reported as “similar” and the “mortality or major behavioral changes” value is reported as “did not cause mortality or major behavioral changes”.

The compound `COc1cccc2c1C1=C(C(=O)C2=O)C(C)(C)C(C)O1` (stereo not drawn) [Compound 1] yielded a CC50 at 72 h in data set [1] of 2420 ± 905 nM. In data set [2], the “weight variation compared to the vehicle control group” value was “similar” and the “mortality or major behavioral changes” value is reported as “did not cause mortality or major behavioral changes”.
